The results in this text go back to PubChem BioAssay (NCI).

Structures are written as SMILES.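 Cultured in 96-well plates, cells were exposed to test compound for 48 hours across five concentrations. The concentration for 50% growth inhibition is given as GI50. The concentration for full growth arrest is given as TGI.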

Some test systems named below: SF-268 CNS; 786-0 renal; SK-MEL-5 melanoma; K-562 leukemia; NCI-H522 lung; EKVX NSCLC; M14 melanoma; RXF 393 renal; OVCAR-5 ovarian; IGROV1 ovarian.
Common to all, as to test: DTP human tumour cell line panel, 48 h

The GI50 is the concentration that inhibits growth by half. In general, TGI refers to the concentration at which net growth stops. Higher therefore signals lower sensitivity of the cells.

As to `CC(CNC(Cc1ccccc1)c1ccccc1)NC(Cc1ccccc1)c1ccccc1` (stereo not given), the GI50 with SF-268 CNS was 3.6 µM; with 786-0 renal, 1.67 µM; with SK-MEL-5 melanoma, 1.79 µM; in the assay on K-562 leukemia it was 2.48 µM; in the assay on NCI-H522 lung it was 1.63 µM; in the assay with EKVX NSCLC it was 2.47 µM. Moreover, the GI50 was 1.79 µM in the assay on M14 melanoma, 1.66 µM with RXF 393 renal, 2.73 µM in the assay on OVCAR-5 ovarian and 2.76 µM in the assay on IGROV1 ovarian. Further, the total growth inhibition concentration (TGI) in the assay with SF-268 CNS amounted to 14.3 µM; in the assay on 786-0 renal, 3.36 µM; in the assay on SK-MEL-5 melanoma, 3.23 µM; in the assay on K-562 leukemia it was 6.41 µM; in the assay on NCI-H522 lung it was 3.5 µM; with EKVX NSCLC, 9.16 µM. Further, the TGI in the assay with M14 melanoma came out at 3.6 µM; in the assay with RXF 393 renal, 3.19 µM; in the assay with OVCAR-5 ovarian, 8.76 µM; with IGROV1 ovarian, 10.5 µM.

Turning to `Cn1ccnc1C(=O)/C=C/c1ccc(CC(=O)Nc2ccccc2)cc1`, the GI50 is 3.72 µM with SF-268 CNS; 2.67 µM in the assay with 786-0 renal; 4.18 µM in the assay on SK-MEL-5 melanoma; 1.07 µM with K-562 leukemia; 3.2 µM with NCI-H522 lung; 6.28 µM with EKVX NSCLC. Besides, the GI50 is 4.55 µM in the assay on M14 melanoma, 3.86 µM in the assay with RXF 393 renal, 4.19 µM in the assay with OVCAR-5 ovarian and 2.11 µM with IGROV1 ovarian. The TGI in the assay with SF-268 CNS is 13.9 µM; in the assay with 786-0 renal it was 7.86 µM; in the assay on SK-MEL-5 melanoma, 7.9 µM; in the assay on K-562 leukemia, over 25 µM; in the assay with NCI-H522 lung, 6.45 µM; with EKVX NSCLC, over 25 µM. In addition, the TGI in the assay on M14 melanoma was 10.8 µM; in the assay on RXF 393 renal it was 7.99 µM; with OVCAR-5 ovarian, 14.7 µM; in the assay on IGROV1 ovarian, 14.5 µM.

In the case of `N#CC(C(=O)C(=O)NCCCNC(=O)C(=O)C(C#N)c1ccccc1)c1ccccc1` (stereo not given), the concentration for total growth inhibition (TGI) with SF-268 CNS, in the assay on 786-0 renal, in the assay on SK-MEL-5 melanoma, in the assay with K-562 leukemia, with NCI-H522 lung and with EKVX NSCLC was over 100 µM throughout. For the same compound, the TGI with M14 melanoma, in the assay with RXF 393 renal, in the assay on OVCAR-5 ovarian and in the assay on IGROV1 ovarian was over 100 µM throughout.

Consider `N[C@H](C(=O)O)[C@H](Cl)CC(=O)O`, for which the TGI in the assay with SF-268 CNS, in the assay with 786-0 renal, with SK-MEL-5 melanoma, in the assay with K-562 leukemia, in the assay on NCI-H522 lung and with EKVX NSCLC was over 100 µM in each case. The TGI in the assay on M14 melanoma, with RXF 393 renal, in the assay on OVCAR-5 ovarian and in the assay with IGROV1 ovarian was over 100 µM each time.

Take `Fc1cccc(COc2ccc(Nc3ncnc4cc(-c5ccc[nH]5)sc34)cc2Cl)c1`: the GI50 was 1.46 µM in the assay with SF-268 CNS; 1.22 µM in the assay with 786-0 renal; 6.01 µM in the assay on SK-MEL-5 melanoma; 10.7 µM in the assay on K-562 leukemia; 1.48 µM with NCI-H522 lung; 0.323 µM in the assay on EKVX NSCLC. Also, the GI50 in the assay on M14 melanoma is 8.32 µM; in the assay with RXF 393 renal it was 2.17 µM; with OVCAR-5 ovarian, 2.22 µM; in the assay with IGROV1 ovarian, 0.406 µM. The concentration for total growth inhibition (TGI) was over 14.7 µM with SF-268 CNS; 5.32 µM with 786-0 renal; over 25 µM with SK-MEL-5 melanoma; over 25 µM in the assay with K-562 leukemia; over 7.14 µM with NCI-H522 lung; 3.75 µM in the assay with EKVX NSCLC. The TGI with M14 melanoma is over 23.4 µM; with RXF 393 renal, 6.62 µM; in the assay with OVCAR-5 ovarian it was 24.9 µM; in the assay with IGROV1 ovarian, 11.7 µM.

In the case of `COc1cc(-c2cn(-c3ccc(Cl)cc3)c(C)c2C(=O)C(F)(F)F)cc(OC)c1OC`, the GI50 is over 100 µM in the assay with SF-268 CNS; over 100 µM in the assay on 786-0 renal; 7.18 µM in the assay on SK-MEL-5 melanoma; 22.7 µM in the assay with K-562 leukemia; 37 µM in the assay with NCI-H522 lung; 51.3 µM in the assay on EKVX NSCLC. Besides, the GI50 with M14 melanoma, with RXF 393 renal, in the assay with OVCAR-5 ovarian and with IGROV1 ovarian was over 100 µM each time. For the same compound, the TGI in the assay on SF-268 CNS, in the assay with 786-0 renal, in the assay on SK-MEL-5 melanoma, in the assay with K-562 leukemia, in the assay with NCI-H522 lung and in the assay on EKVX NSCLC was over 100 µM each time. The TGI with M14 melanoma, in the assay with RXF 393 renal, with OVCAR-5 ovarian and in the assay on IGROV1 ovarian was over 100 µM in each case.

Take `COc1nc2nccc-2c2occn12`: the TGI with SF-268 CNS, with 786-0 renal, in the assay with SK-MEL-5 melanoma, in the assay on K-562 leukemia, in the assay with NCI-H522 lung and with EKVX NSCLC was over 100 µM throughout. The TGI with M14 melanoma, in the assay on RXF 393 renal, in the assay on OVCAR-5 ovarian and with IGROV1 ovarian was over 100 µM each time.

Turning to `CC1OC2CC(=O)OC2C2=C1C(=O)c1c(O)c3c(c(O)c1C2=O)C1CC(O)C3(O)C(C)O1` (stereo not given), the GI50 is 0.303 µM in the assay with SF-268 CNS; 0.635 µM in the assay on 786-0 renal; 1.23 µM in the assay on SK-MEL-5 melanoma; 0.336 µM in the assay with K-562 leukemia; 0.195 µM in the assay on NCI-H522 lung; 0.534 µM with EKVX NSCLC. Also, the GI50 in the assay on M14 melanoma was 0.242 µM; in the assay with RXF 393 renal, 1.2 µM; in the assay with OVCAR-5 ovarian, 0.292 µM; with IGROV1 ovarian, 0.329 µM. Moreover, the total growth inhibition concentration (TGI) was 1.15 µM with SF-268 CNS; 1.78 µM in the assay on 786-0 renal; 2.5 µM with SK-MEL-5 melanoma; 11.5 µM in the assay with K-562 leukemia; 0.447 µM in the assay with NCI-H522 lung; 1.8 µM in the assay with EKVX NSCLC. The TGI was found to be 0.662 µM with M14 melanoma, 2.51 µM in the assay on RXF 393 renal, 0.879 µM in the assay on OVCAR-5 ovarian and 1.7 µM in the assay with IGROV1 ovarian.

For the compound `COC(=O)CNC(=O)[C@@H](OC)[C@@H]1Cc2cc3cc(OC4CC(OC5CC(O)C(O)C(C)O5)C(O)C(C)O4)c(C)c(O)c3c(O)c2C(=O)[C@H]1OC1CC(OC2CC(OC3CC(C)(O)C(O)C(C)O3)C(O)C(C)O2)C(O)C(C)O1` (stereo not given in full), the 50% growth inhibitory concentration (GI50) was 0.196 µM in the assay with SF-268 CNS; 0.26 µM with 786-0 renal; 0.084 µM in the assay on SK-MEL-5 melanoma; 0.192 µM in the assay with K-562 leukemia; 0.0921 µM in the assay on NCI-H522 lung; 0.219 µM in the assay on EKVX NSCLC. Moreover, the GI50 with M14 melanoma is 0.239 µM; in the assay on RXF 393 renal, 0.0877 µM; in the assay on OVCAR-5 ovarian it was 0.184 µM; with IGROV1 ovarian, 0.192 µM. Besides, the total growth inhibition concentration (TGI) was over 50 µM with SF-268 CNS; over 50 µM in the assay with 786-0 renal; 0.538 µM in the assay on SK-MEL-5 melanoma; over 50 µM with K-562 leukemia; 0.372 µM in the assay with NCI-H522 lung; over 50 µM with EKVX NSCLC. Moreover, the TGI with M14 melanoma was 2.4 µM; in the assay on RXF 393 renal it was 0.355 µM; with OVCAR-5 ovarian it was over 50 µM; in the assay with IGROV1 ovarian it was over 50 µM.

As for `CC(=O)c1cc([N+](=O)[O-])ccc1OCC(=O)O`, the TGI in the assay with SF-268 CNS, in the assay on 786-0 renal, in the assay on SK-MEL-5 melanoma, in the assay with K-562 leukemia, in the assay on NCI-H522 lung and with EKVX NSCLC was over 100 µM each time. Moreover, the TGI with M14 melanoma, in the assay with RXF 393 renal, with OVCAR-5 ovarian and in the assay on IGROV1 ovarian was over 100 µM each time.

`Cc1cc2c3ccccc3n(C)c2c2c1C(=O)C=CC2=O`: the TGI with SF-268 CNS is 39.1 µM; in the assay with 786-0 renal, 13.4 µM; with SK-MEL-5 melanoma, 51.6 µM; in the assay on K-562 leukemia, over 74 µM; in the assay with NCI-H522 lung, 31.8 µM; with EKVX NSCLC it was 19 µM. Moreover, the total growth inhibition concentration (TGI) in the assay with M14 melanoma amounted to 31.9 µM; with RXF 393 renal, 20.5 µM; with OVCAR-5 ovarian, 35.4 µM; in the assay with IGROV1 ovarian, 36.8 µM.

Consider `COc1cc([C@@H]2c3cc4c(cc3[C@@H](NC(=O)c3ccccc3)C3COC(=O)[C@@H]32)OCO4)cc(OC)c1O` (stereo not given in full), for which the TGI is over 100 µM in the assay on SF-268 CNS; 21.9 µM with 786-0 renal; 14.1 µM with SK-MEL-5 melanoma; 33.8 µM in the assay on K-562 leukemia; 26.2 µM with NCI-H522 lung; 87.1 µM in the assay with EKVX NSCLC. In addition, the TGI is 24.8 µM in the assay on M14 melanoma, 74.4 µM with RXF 393 renal, over 100 µM with OVCAR-5 ovarian and 25.7 µM in the assay with IGROV1 ovarian.

Consider `CN(C)c1ccc2cc(-c3ccccc3F)c(N)nc2c1`, for which the GI50 in the assay with SF-268 CNS was 3.89 µM; in the assay with 786-0 renal, 2.49 µM; in the assay on SK-MEL-5 melanoma, 1.54 µM; with K-562 leukemia, 0.393 µM; with NCI-H522 lung, 1.35 µM; with EKVX NSCLC it was 6.57 µM. Further, the GI50 in the assay with M14 melanoma was 0.448 µM; with RXF 393 renal, 2.53 µM; in the assay with OVCAR-5 ovarian it was 3.55 µM; with IGROV1 ovarian, 2.81 µM. Besides, the concentration for total growth inhibition (TGI) stood at 19.8 µM with SF-268 CNS; 14.3 µM in the assay on 786-0 renal; 6.31 µM in the assay with SK-MEL-5 melanoma; 16.6 µM with K-562 leukemia; 5.87 µM in the assay on NCI-H522 lung; 26.7 µM with EKVX NSCLC. Further, the TGI with M14 melanoma is 4.5 µM; in the assay with RXF 393 renal, 10.8 µM; in the assay with OVCAR-5 ovarian it was 17.8 µM; in the assay with IGROV1 ovarian it was 24.4 µM.
